Test results reported in patent US8969362B2 (priority 2004, dated 2015).

Legend:
[1] = system: rat spleen cells; assay: cells; type: cell-based; settings: 24 h, read-out: Minimum effective concentration (interferon inducing activity)

SMILES: CCCCOc1nc(N)c2[nH]c(=O)n(CCOc3cccc(C(=O)O)c3)c2n1 [Comparison Example 1, 2-butoxy-8-oxo-9-[2-(3-hydroxycarbonylphenoxy)ethyl]adenine, reference compound]
- minimal effective concentration [1]: 0.01 µM

SMILES: CCCCOc1nc(N)c2[nH]c(=O)n(CCOc3cccc(CC(=O)O)c3)c2n1 [Comparison Example 2, 2-butoxy-8-oxo-9-[2-(3-hydroxycarbonylmethylphenoxy)ethyl]adenine, reference compound]
- minimal effective concentration [1]: 0.03 µM

SMILES: CCCCOc1nc(N)c2[nH]c(=O)n(CCOc3ccccc3C(=O)O)c2n1 [Comparison Example 3, 2-butoxy-8-oxo-9-[2-(2-hydroxycarbonylphenoxy)ethyl]adenine, reference compound]
- minimal effective concentration [1]: 0.1 µM

SMILES: CCCCOc1nc(N)c2[nH]c(=O)n(CCOc3ccccc3CC(=O)O)c2n1 [Comparison Example 4, 2-butoxy-8-oxo-9-[2-(2-hydroxycarbonylmethylphenoxy)ethyl]adenine, reference compound]
- minimal effective concentration [1]: 0.1 µM

SMILES: CCCCOc1nc(N)c2[nH]c(=O)n(CCCCNS(=O)(=O)c3cccc(C(=O)O)c3)c2n1 [Comparison Example 8, 2-butoxy-8-oxo-9-[4-(3-hydroxycarbonylbenzenesulfonamide)butyl]adenine, reference compound]
- minimal effective concentration [1]: 0.1 µM

SMILES: CCCCOc1nc(N)c2nc(O)n(CCCCNS(=O)(=O)c3cccc(CC(=O)O)c3)c2n1 [Comparison Example 9, 2-butoxy-8-oxo-9-[4-(3-hydroxycarbonylmethylbenzenesulfonamide)butyl]adenine, reference compound]
- minimal effective concentration [1]: 0.3 µM

SMILES: CCCCOc1nc(N)c2[nH]c(=O)n(CCCCNC(=O)Nc3cccc(C(=O)O)c3)c2n1 [Comparison Example 10, 2-butoxy-8-oxo-9-[4-(3-hydroxycarbonylphenylaminocarbonylamino)butyl]adenine, reference compound]
- minimal effective concentration [1]: 0.3 µM

SMILES: CCCCOc1nc(N)c2[nH]c(=O)n(CCCCNC(=O)Nc3cccc(CC(=O)O)c3)c2n1 [Comparison Example 11, 2-butoxy-8-oxo-9-[4-(3-hydroxycarbonylmethylphenylaminocarbonylamino)butyl]adenine, reference compound]
- minimal effective concentration [1]: 0.1 µM

SMILES: CCCCOc1nc(N)c2[nH]c(=O)n(CCCNCc3cccc(C(=O)OC)c3)c2n1 [Example 2-3, Methyl 3-({[3-(6-amino-2-butoxy-8-oxo-7,8-dihydro-9H-purin-9-yl)propyl]amino}methyl)benzoate]
- melting point: 214 to 218 °C

SMILES: CCCCOc1nc(N)c2[nH]c(=O)n(CCCCNS(=O)(=O)c3ccc(CCC(=O)OC)cc3)c2n1 [Example 2-11, Methyl 3-[4-({[4-(6-amino-2-butoxy-8-oxo-7,8-dihydro-9H-purin-9-yl)butyl]amino}sulfonyl)phenyl]propanoate]
- melting point: 150 to 152 °C

SMILES: CCCCOc1nc(N)c2[nH]c(=O)n(CCCCNS(=O)(=O)c3ccc(CCC(=O)O)cc3)c2n1 [Example 2-12, 3-[4-({[4-(6-Amino-2-butoxy-8-oxo-7,8-dihydro-9H-purin-9-yl)butyl]amino}sulfonyl)phenyl]propionic acid]
- melting point: 210 to 211 °C

SMILES: CCCCOc1nc(N)c2[nH]c(=O)n(CCCCN(CCN3CCCC3)S(=O)(=O)c3cccc(CC(=O)O)c3)c2n1 [Example 2-14, (3-{[[4-(6-Amino-2-butoxy-8-oxo-7,8-dihydro-9H-purin-9-yl)butyl](2-pyrrolidin-1-ylethyl)amino]sulfonyl}phenyl)acetic acid]
- melting point: 192 to 193 °C

SMILES: CCCCOc1nc(N)c2[nH]c(=O)n(CCCCN(CCOC)S(=O)(=O)c3cccc(CC(=O)OC)c3)c2n1 [Example 2-15, Methyl (3-{[[4-(6-amino-2-butoxy-8-oxo-7,8-dihydro-9H-purin-9-yl)butyl](2-methoxyethyl)amino]sulfonyl}phenyl)acetate]
- melting point: 182 to 183 °C

SMILES: CCCCOc1nc(N)c2[nH]c(=O)n(CCCCN(CCOC)S(=O)(=O)c3cccc(CC(=O)O)c3)c2n1 [Example 2-16, (3-{[[4-(6-Amino-2-butoxy-8-oxo-7,8-dihydro-9H-purin-9-yl)butyl](2-methoxyethyl)amino]sulfonyl}phenyl)acetic acid]
- melting point: 171 to 172 °C

SMILES: CCCCOc1nc(N)c2[nH]c(=O)n(CCCCN(C)S(=O)(=O)c3cccc(CC(=O)O)c3)c2n1 [Example 2-18, (3-{[[4-(6-Amino-2-butoxy-8-oxo-7,8-dihydro-9H-purin-9-yl)butyl](methyl)amino]sulfonyl}phenyl)acetic acid]
- melting point: 171 to 172 °C

SMILES: CCCCOc1nc(N)c2[nH]c(=O)n(CCCCN(CC(C)(C)CN(C)C)S(=O)(=O)c3cccc(CC(=O)O)c3)c2n1 [Example 2-20, [3-({[4-(6-Amino-2-butoxy-8-oxo-7,8-dihydro-9H-purin-9-yl)butyl][3-(dimethylamino)-2,2-dimethylpropyl]amino}sulfonyl)phenyl]acetic acid]
- melting point: 175 to 176 °C

SMILES: CCCCOc1nc(N)c2[nH]c(=O)n(CCCNS(=O)(=O)c3cccc(CC(=O)OC)c3)c2n1 [Example 2-21, Methyl [3-({[3-(6-amino-2-butoxy-8-oxo-7,8-dihydro-9H-purin-9-yl)propyl]amino}sulfonyl)phenyl]acetate]
- melting point: 218 to 219 °C

SMILES: CCCCOc1nc(N)c2[nH]c(=O)n(CCCCN(CC(C)(C)O)S(=O)(=O)c3cccc(CC(=O)OC)c3)c2n1 [Example 2-22, Methyl (3-{[[4-(6-amino-2-butoxy-8-oxo-7,8-dihydro-9H-purin-9-yl)butyl](2-hydroxy-2-methylpropyl)amino]sulfonyl}phenyl)acetate]
- melting point: 192 to 193 °C

SMILES: CCCCOc1nc(N)c2[nH]c(=O)n(CCCCN(Cc3cccc(CC(=O)O)c3)CC(C)(C)CN(C)C)c2n1 [Example 2-32, [3-({[4-(6-Amino-2-butoxy-8-oxo-7,8-dihydro-9H-purin-9-yl)butyl][3-(dimethylamino)-2,2-dimethylpropyl]amino}methyl)phenyl]acetic acid]
- melting point: 189 to 190 °C

SMILES: CCCCOc1nc(N)c2[nH]c(=O)n(CCCCN(CCCN3CCCC3=O)Cc3cccc(CC(=O)OC)c3)c2n1 [Example 2-33, Methyl [3-({[4-(6-amino-2-butoxy-8-oxo-7,8-dihydro-9H-purin-9-yl)butyl][3-(2-oxopyrrolidin-1-yl)propyl]amino}methyl)phenyl]acetate]
- melting point: 115 to 116 °C

SMILES: CCCCOc1nc(N)c2[nH]c(=O)n(CCCCN(CCN3CCOCC3)Cc3cccc(CC(=O)OC)c3)c2n1 [Example 2-35, Methyl (3-{[[4-(6-amino-2-butoxy-8-oxo-7,8-dihydro-9H-purin-9-yl)butyl](2-morpholin-4-ylethyl)amino]methyl}phenyl)acetate]
- melting point: 189 to 190 °C

SMILES: CCCCOc1nc(N)c2[nH]c(=O)n(CCSc3cccc(CC(=O)OC)c3)c2n1 [Example 2-39, Methyl (3-{[2-(6-amino-2-butoxy-8-oxo-7,8-dihydro-9H-purin-9-yl)ethyl]thio}phenyl)acetate]
- melting point: 232 to 233 °C

SMILES: CCCCOc1nc(N)c2[nH]c(=O)n(CCSc3cccc(CC(=O)O)c3)c2n1 [Example 2-40, (3-{[2-(6-Amino-2-butoxy-8-oxo-7,8-dihydro-9H-purin-9-yl)ethyl]thio}phenyl)acetic acid]
- melting point: 205 to 207 °C

SMILES: CCCCOc1nc(N)c2[nH]c(=O)n(CCNc3cccc(CC(=O)OC)c3)c2n1 [Example 2-41, Methyl (3-{[2-(6-amino-2-butoxy-8-oxo-7,8-dihydro-9H-purin-9-yl)ethyl]amino}phenyl)acetate]
- melting point: 222 to 223 °C

SMILES: CCCCOc1nc(N)c2[nH]c(=O)n(CCCNc3cccc(CC(=O)OC)c3)c2n1 [Example 2-42, Methyl (3-{[3-(6-amino-2-butoxy-8-oxo-7,8-dihydro-9H-purin-9-yl)propyl]amino}phenyl)acetate]
- melting point: 208 to 209 °C

SMILES: CCCCOc1nc(N)c2[nH]c(=O)n(CCCNc3cccc(CC(=O)O)c3)c2n1 [Example 2-43, (3-{[3-(6-Amino-2-butoxy-8-oxo-7,8-dihydro-9H-purin-9-yl)propyl]amino}phenyl)acetic acid]
- melting point: 247 °C

SMILES: CCCCOc1nc(N)c2[nH]c(=O)n(CCS(=O)(=O)c3cccc(CC(=O)OC)c3)c2n1 [Example 2-48, Methyl (3-{[2-(6-amino-2-butoxy-8-oxo-7,8-dihydro-9H-purin-9-yl)ethyl]sulfonyl}phenyl)acetate]
- melting point: 246 to 247 °C

SMILES: CCCCOc1nc(N)c2[nH]c(=O)n(CCN(C)Cc3cccc(CC(=O)O)c3)c2n1 [Example 2-50, (3-{[[2-(6-Amino-2-butoxy-8-oxo-7,8-dihydro-9H-purin-9-yl)ethyl](methyl)amino]methyl}phenyl)acetic acid]
- melting point: 164 to 166 °C

SMILES: CCCCOc1nc(N)c2[nH]c(=O)n(CCCCNC(=O)Nc3cccc(CC(=O)OC)c3)c2n1 [Example 11, 2-butoxy-8-oxo-9-[4-(3-methoxycarbonylmethylphenylaminocarbonylamino)butyl]adenine]
- minimal effective concentration [1]: 0.01 µM
